Results reported in PubChem BioAssay AID248 (DTP/NCI, 2004).
Values joined by “and” are separate entries in the source; they are usually repeats but may differ in a detail not shown here. Equal values may be shown once. Toxic doses and inconclusive results are not listed. Cut-off read from the data, not from the text of the source: active = T/C of 150% or more; inactive = T/C below 125%.

Test system: L1210 leukemia ip in BDF1 mice, survival T/C
Experiment: NCI In Vivo Anticancer Drug Screen. Data for tumor model L1210 Leukemia (intraperitoneal) in B6D2F1 (BDF1) mice
Conditions: endpoint: mean survival time, higher = longer survival
In short: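 Mice bearing the transplanted tumor received compound or vehicle. Survival of the treated group was divided by that of the vehicle-treated control group to give the ratio.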

[1] = dose: 100.0 mg/kg/injection, schedule: Q01DX001 (ip), vehicle: saline with Tween-80
[2] = dose: 100.0 mg/kg/injection, schedule: Q01DX009 (ip), vehicle: saline with Tween-80
[3] = dose: 100.0 mg/kg/injection, schedule: Q04DX003 (ip), vehicle: saline with Tween-80
[4] = dose: 200.0 mg/kg/injection, schedule: Q01DX001 (ip), vehicle: saline with Tween-80
[5] = dose: 200.0 mg/kg/injection, schedule: Q04DX003 (ip), vehicle: saline with Tween-80
[6] = dose: 400.0 mg/kg/injection, schedule: Q01DX001 (ip), vehicle: saline with Tween-80
[7] = dose: 400.0 mg/kg/injection, schedule: Q04DX003 (ip), vehicle: saline with Tween-80
[8] = dose: 100.0 mg/kg/injection, schedule: Q01DX001 (ip), vehicle: Klucel (hydroxypropylcellulose) (HPC)
[9] = dose: 100.0 mg/kg/injection, schedule: Q04DX003 (ip), vehicle: Klucel (hydroxypropylcellulose) (HPC)
[10] = dose: 200.0 mg/kg/injection, schedule: Q01DX001 (ip), vehicle: Klucel (hydroxypropylcellulose) (HPC)
[11] = dose: 200.0 mg/kg/injection, schedule: Q04DX003 (ip), vehicle: Klucel (hydroxypropylcellulose) (HPC)
[12] = dose: 400.0 mg/kg/injection, schedule: Q04DX003 (ip), vehicle: Klucel (hydroxypropylcellulose) (HPC)
[13] = dose: 100.0 mg/kg/injection, schedule: Q01DX001 (ip), vehicle: carboxymethylcellulose (CMC)
[14] = dose: 200.0 mg/kg/injection, schedule: Q01DX001 (ip), vehicle: carboxymethylcellulose (CMC)
[15] = dose: 400.0 mg/kg/injection, schedule: Q01DX001 (ip), vehicle: carboxymethylcellulose (CMC)

Measured: T/C

CCc1cccc(CC)c1NC(=O)Nc1cc(Cl)ccc1C
inactive: dose: 25.0 mg/kg/injection, schedule: Q04DX003 (ip), vehicle: saline with Tween-80 94 % of control | dose: 50.0 mg/kg/injection, schedule: Q04DX003 (ip), vehicle: saline with Tween-80 105 % of control and 86 % of control | [1] 105 % of control | [2] 97 % of control and 111 % of control | dose: 100.0 mg/kg/injection, schedule: Q04DX002 (ip), vehicle: saline with Tween-80 95 % of control and 103 % of control | [3] 87 % of control and 91 % of control | [4] 90 % of control | dose: 200.0 mg/kg/injection, schedule: Q01DX009 (ip), vehicle: saline with Tween-80 97 % of control and 113 % of control | dose: 200.0 mg/kg/injection, schedule: Q04DX002 (ip), vehicle: saline with Tween-80 103 % of control | [5] 91 % of control | [6] 89 % of control | dose: 400.0 mg/kg/injection, schedule: Q01DX009 (ip), vehicle: saline with Tween-80 94 % of control and 97 % of control | dose: 400.0 mg/kg/injection, schedule: Q04DX002 (ip), vehicle: saline with Tween-80 98 % of control and 89 % of control | [7] 88 % of control

Cc1ccc(/C(=N\N=C(N)N)C2CC2)c(C)c1
inactive: dose: 15.0 mg/kg/injection, schedule: Q01DX Z (ip), vehicle: methylcellulose (MC) 89 % of control | dose: 30.0 mg/kg/injection, schedule: Q01DX Z (ip), vehicle: methylcellulose (MC) 98 % of control | dose: 30.0 mg/kg/injection, schedule: Q01DX Z (oral), vehicle: methylcellulose (MC) 103 % of control | dose: 60.0 mg/kg/injection, schedule: Q01DX Z (ip), vehicle: methylcellulose (MC) 95 % of control | dose: 60.0 mg/kg/injection, schedule: Q01DX Z (oral), vehicle: methylcellulose (MC) 97 % of control | dose: 240.0 mg/kg/injection, schedule: Q01DX Z (oral), vehicle: methylcellulose (MC) 86 % of control

Cc1ccc(C(=O)c2ccn[nH]2)cc1
inactive: [8] 93 % of control | [9] 96 % of control | [10] 94 % of control | [11] 93 % of control | dose: 400.0 mg/kg/injection, schedule: Q01DX001 (ip), vehicle: Klucel (hydroxypropylcellulose) (HPC) 98 % of control | [12] 96 % of control

O=C1c2ccccc2Cc2cscc21
inactive: [3] 91 % of control | [5] 91 % of control

Cc1ccc(C[n+]2cccc(NC(=O)COc3ccc(Cl)c(Cl)c3)c2)cc1
inactive: [3] 95 % of control | [5] 93 % of control | [7] 98 % of control

CC1(C)C=C(C(Cl)c2ccccc2)C(=O)c2ccccc21 (stereo not given)
inactive: [9] 95 % of control | [11] 101 % of control | [12] 101 % of control

CCCCCCCCc1cc(Cl)c(O)c(Cl)c1
inactive: dose: 50.0 mg/kg/injection, schedule: Q01DX009 (ip), vehicle: Klucel (hydroxypropylcellulose) (HPC) 105 % of control | dose: 100.0 mg/kg/injection, schedule: Q01DX009 (ip), vehicle: Klucel (hydroxypropylcellulose) (HPC) 105 % of control | dose: 200.0 mg/kg/injection, schedule: Q01DX009 (ip), vehicle: Klucel (hydroxypropylcellulose) (HPC) 93 % of control

NC(N)=N/N=C(/c1ccccc1)c1ccccc1F
inactive: dose: 15.0 mg/kg/injection, schedule: Q01DX Z (ip), vehicle: saline 111 % of control | dose: 30.0 mg/kg/injection, schedule: Q01DX Z (ip), vehicle: saline 100 % of control | dose: 60.0 mg/kg/injection, schedule: Q01DX Z (ip), vehicle: saline 108 % of control | dose: 120.0 mg/kg/injection, schedule: Q01DX Z (ip), vehicle: saline 103 % of control | dose: 120.0 mg/kg/injection, schedule: Q01DX Z (oral), vehicle: saline 105 % of control | dose: 240.0 mg/kg/injection, schedule: Q01DX Z (ip), vehicle: saline 95 % of control | dose: 240.0 mg/kg/injection, schedule: Q01DX Z (oral), vehicle: saline 105 % of control | dose: 480.0 mg/kg/injection, schedule: Q01DX Z (ip), vehicle: saline 96 % of control | dose: 480.0 mg/kg/injection, schedule: Q01DX Z (oral), vehicle: saline 105 % of control

CC(C)NC(=O)C1C2CCC(CC2)C1C(=O)NC(C)C (stereo not given)
inactive: [3] 96 % of control | [5] 86 % of control | [7] 86 % of control

CC(=O)Nc1ccc(Cc2[nH]c(=O)[nH]c(=O)c2Br)cc1
inactive: [8] 93 % of control | [10] 93 % of control

CCOC1Cc2ccccc21 (stereo not given)
inactive: [3] 95 % of control | [5] 96 % of control | [7] 98 % of control

CCOC(=O)C(C)N(c1ccccc1)S(=O)(=O)c1ccc(C)cc1 (stereo not given)
inactive: [13] 103 % of control | [14] 110 % of control | [15] 113 % of control

CCCCCCCCCCCCOc1ccccc1C=O
inactive: [9] 101 % of control | [11] 106 % of control | [12] 96 % of control

CCOc1cc(C(F)(F)F)nc2c3c(cc(OC)c12)CCCN3CC
inactive: [3] 102 % of control | [5] 100 % of control | [7] 97 % of control

CCN(CC)CC(Cl)CN(CC)CC
inactive: dose: 50.0 mg/kg/injection, schedule: Q01DX009 (ip), vehicle: saline with Tween-80 104 % of control | [2] 87 % of control | [3] 97 % of control | [5] 88 % of control

O=C1NC(CN2CCCC(O)C2)C(=O)NC1CN1CCCC(O)C1 (stereo not given) (tested in a mixture with another compound)
inactive: dose: 25.0 mg/kg/injection, schedule: Q01DX009 (ip), vehicle: water 104 % of control | dose: 50.0 mg/kg/injection, schedule: Q01DX009 (ip), vehicle: water 104 % of control | dose: 100.0 mg/kg/injection, schedule: Q01DX009 (ip), vehicle: water 112 % of control | dose: 200.0 mg/kg/injection, schedule: Q01DX009 (ip), vehicle: water 108 % of control

CCOc1ccc(NC(=O)N(O)C2(C#N)CCCCC2)cc1
inactive: dose: 100.0 mg/kg/injection, schedule: Q01DX001 (ip), vehicle: other 93 % of control | dose: 200.0 mg/kg/injection, schedule: Q01DX001 (ip), vehicle: other 96 % of control | dose: 400.0 mg/kg/injection, schedule: Q01DX001 (ip), vehicle: other 93 % of control

c1csc(CNCCN2CC2)c1
inactive: dose: 2.5 mg/kg/injection, schedule: Q01DX009 (ip), vehicle: saline 89 % of control | dose: 2.5 mg/kg/injection, schedule: Q04DX003 (ip), vehicle: saline 95 % of control | dose: 5.0 mg/kg/injection, schedule: Q04DX003 (ip), vehicle: saline 103 % of control | dose: 10.0 mg/kg/injection, schedule: Q04DX003 (ip), vehicle: saline 100 % of control

COc1ccc(-c2ccccc2)cc1SCCC(=O)O
inactive: dose: 50.0 mg/kg/injection, schedule: Q01DX001 (ip), vehicle: carboxymethylcellulose (CMC) 114 % of control | [13] 101 % of control | [14] 97 % of control | [15] 95 % of control

CCSC(=O)n1nc(Cl)c2cc([N+](=O)[O-])ccc21
inactive: [13] 93 % of control | [14] 102 % of control | [15] 93 % of control

Cc1ccc(CNC(=O)Nc2cccc(C(F)(F)F)c2)cc1C
inactive: dose: 100.0 mg/kg/injection, schedule: Q01DX009 (ip), vehicle: gum acacia 89 % of control | dose: 200.0 mg/kg/injection, schedule: Q01DX009 (ip), vehicle: gum acacia 89 % of control

O=[N+]([O-])c1ccc(Cl)c(OCCCOc2ccc(S(=O)(=O)F)cc2)c1
inactive: [1] 96 % of control | [4] 87 % of control | [6] 90 % of control
